Assay results from ChEMBL document CHEMBL5506059, “Cyanomethylquinolones as a New Class of Potential Multitargeting Broad-Spectrum Antibacterial Agents” (J Med Chem, 2024).
Converted amounts (≈) assume the structure as drawn. The source made the active and inactive calls. No cut-off for these calls is given here.

Tests used:
[1] = Cytotoxicity against human FHC assessed as cell viability at 20 ug/ml measured after 24 hrs by MTT assay relative to control; assay type: toxicity, cell-based; details: FHC cells, at 20 µg/mL, read-out: Activity
Staphylococcus aureus [2] = assay: Antibacterial activity against methicillin-resistant Staphylococcus aureus ATCC 43300 assessed as inhibition of bacterial growth incubated for 24 hrs; assay type: functional
Staphylococcus aureus [3] = assay: Antibacterial activity against Staphylococcus aureus CMCC(B)26001 assessed as inhibition of bacterial growth incubated for 24 hrs; assay type: functional
Calf thymus DNA [4] = assay: Binding affinity to calf thymus DNA assessed as DNA-compound complex formation by measuring hypochromism at 0 to 2.3 x 10^-8mol/L by UV absorption spectra based analysis; assay type: nucleic-acid assay; details: Bos taurus; dose 0-2.3 10^-8mol/L
Enterococcus faecalis [5] = assay: Antibacterial activity against vancomycin-resistant Enterococcus faecalis clinical isolate p1-2007226001 assessed as inhibition of bacterial growth incubated for 24 hrs; assay type: functional
Klebsiella pneumoniae = assay: Antibacterial activity against Klebsiella pneumoniae clinical isolate assessed as inhibition of bacterial growth incubated for 24 hrs; assay type: functional
Calf thymus DNA [6] = assay: Competitive binding affinity to calf thymus DNA assessed as displacement of neutral red from DNA-neutral red complex by measuring reduction in absorbance at 540 nm at 0 to 2.1x10^-8 mol/L by UV absorption spectroscopy; assay type: nucleic-acid assay; details: Bos taurus; dose 0-2.1 10^-8mol/L
Streptococcus pyogenes [7] = assay: Antibacterial activity against Streptococcus pyogenes ATCC 19615 assessed as inhibition of bacterial growth incubated for 24 hrs; assay type: functional
[8] = Hemolytic activity in human Red blood cells at 32 ug/ml measured after 1.5 hrs by absorbance based assay relative to control; assay type: toxicity, cell-based, Erythrocyte; details: red blood cells (erythrocytes), at 32 µg/mL, read-out: Activity
Streptococcus pyogenes [9] = assay: Potency index, ratio of norfloxacin MIC to test compound MIC for antibacterial activity against Streptococcus pyogenes ATCC 19615 assessed as inhibition of bacterial growth incubated for 24 hrs; assay type: functional
Enterococcus faecalis [10] = assay: Antibacterial activity against Enterococcus faecalis clinical isolate assessed as inhibition of bacterial growth incubated for 24 hrs; assay type: functional
Pseudomonas aeruginosa [11] = assay: Antibacterial activity against Pseudomonas aeruginosa ATCC 27853 assessed as inhibition of bacterial growth incubated for 24 hrs; assay type: functional
Staphylococcus aureus [12] = assay: Antibacterial activity against Staphylococcus aureus ATCC 29213 assessed as inhibition of bacterial growth incubated for 24 hrs; assay type: functional
Erythrocyte = assay: Hemolytic activity in human Red blood cells assessed as concentration required for 5% hemolysis measured after 1.5 hrs by absorbance based assay; assay type: toxicity, cell-based
[13] = Cytotoxicity against HUVEC cells assessed as cell viability at 25 ug/ml measured after 24 hrs by MTT assay relative to control; assay type: toxicity, cell-based; details: human, at 25 µg/mL, read-out: Activity
Streptococcus pyogenes [14] = assay: Potency index, ratio of ciprofloxacin MIC to test compound MIC for antibacterial activity against Streptococcus pyogenes ATCC 19615 assessed as inhibition of bacterial growth incubated for 24 hrs; assay type: functional
Escherichia coli [15] = assay: Antibacterial activity against Escherichia coli clinical isolate assessed as inhibition of bacterial growth incubated for 24 hrs; assay type: functional
Staphylococcus aureus [16] = assay: Antibacterial activity against Staphylococcus aureus ATCC 6538 assessed as inhibition of bacterial growth incubated for 24 hrs; assay type: functional
Staphylococcus aureus [17] = assay: Antibacterial activity against Staphylococcus aureus ATCC 12600 assessed as inhibition of bacterial growth incubated for 24 hrs; assay type: functional
Calf thymus DNA [18] = assay: Binding affinity to calf thymus DNA assessed as DNA-compound complex formation by measuring increase in absorption of DNA at 260 nm at 0 to 2.3 x 10^-8mol/L by UV absorption spectra based analysis; assay type: nucleic-acid assay; details: Bos taurus; dose 0-2.3 10^-8mol/L
Staphylococcus aureus [19] = assay: Antibacterial activity against methicillin resistant Staphylococcus aureus clinical isolate assessed as inhibition of bacterial growth incubated for 24 hrs; assay type: functional
Pseudomonas aeruginosa [20] = assay: Antibacterial activity against Pseudomonas aeruginosa clinical isolate assessed as inhibition of bacterial growth incubated for 24 hrs; assay type: functional
[21] = Cytotoxicity against human normal Squamous epithelial cell (NOK) assessed as inhibition of cell growth measured after 24 hrs by MTT assay; assay type: toxicity, cell-based; details: normal squamous epithelial cells (NOK)
[22] = Cytotoxicity against human FHC assessed as inhibition of cell growth measured after 24 hrs by MTT assay; assay type: toxicity, cell-based; details: FHC cells
Staphylococcus aureus [23] = assay: Resistance development in methicillin resistant Staphylococcus aureus assessed as increase in MIC measured after 20 days; assay type: functional, organism-based; details: time 20.0 day
Escherichia coli [24] = assay: Antibacterial activity against Escherichia coli ATCC 25922 assessed as inhibition of bacterial growth incubated for 24 hrs; assay type: functional
Calf thymus DNA [25] = assay: Binding affinity to calf thymus DNA assessed as disruption of DNA confirmation by measuring blue shift at 0 to 2.3 x 10^-8mol/L by UV absorption spectra based analysis; assay type: nucleic-acid assay; details: Bos taurus; dose 0-2.3 10^-8mol/L
Acinetobacter baumannii = assay: Antibacterial activity against Acinetobacter baumannii clinical isolate assessed as inhibition of bacterial growth incubated for 24 hrs; assay type: functional
Streptococcus pneumoniae = assay: Antibacterial activity against Streptococcus pneumoniae ATCC 6305 assessed as inhibition of bacterial growth incubated for 24 hrs; assay type: functional
Enterococcus faecium = assay: Antibacterial activity against Enterococcus faecium ATCC 19434 assessed as inhibition of bacterial growth incubated for 24 hrs; assay type: functional
L02 = assay: Cytotoxicity against human L02 cells assessed as reduction in cell viability at 0.78 to 25 ug/ml measured after 24 hrs by MTT assay; assay type: toxicity, cell-based; details: l02, 24 h, dose 0.78-25 µg/ml
Staphylococcus aureus [26] = assay: Antibacterial activity against Staphylococcus aureus ATCC 25923 assessed as inhibition of bacterial growth incubated for 24 hrs; assay type: functional
HUVEC = assay: Cytotoxicity against HUVEC cells assessed as reduction in cell viability at 0.78 to 25 ug/ml measured after 24 hrs by MTT assay; assay type: toxicity, cell-based; details: human, dose 0.78-25 µg/ml
[27] = system: Staphylococcus epidermidis; assay: Antibacterial activity against Staphylococcus epidermidis ATCC 12228 assessed as inhibition of bacterial growth incubated for 24 hrs; assay type: functional
Enterococcus faecalis [28] = assay: Antibacterial activity against vancomycin-resistant Enterococcus faecalis clinical isolate p1-2007225053 assessed as inhibition of bacterial growth incubated for 24 hrs; assay type: functional
Staphylococcus aureus [29] = assay: Antibacterial activity against Staphylococcus aureus clinical isolate assessed as inhibition of bacterial growth incubated for 24 hrs; assay type: functional
Pseudomonas aeruginosa [30] = assay: Resistance development in Pseudomonas aeruginosa assessed as increase in MIC measured after 20 days; assay type: functional, organism-based; details: time 20.0 day
Staphylococcus aureus [31] = assay: Antibacterial activity against Staphylococcus aureus CMCC(B)26003 assessed as inhibition of bacterial growth incubated for 24 hrs; assay type: functional
Pseudomonas aeruginosa [32] = assay: Resistance development in Pseudomonas aeruginosa assessed as fold increase in MIC measured after 20 days relative to control; assay type: functional; details: time 20 day
Staphylococcus aureus [33] = assay: Resistance development in methicillin resistant Staphylococcus aureus assessed as fold increase in MIC measured after 20 days relative to control; assay type: functional; details: time 20 day

## N#CCc1cc2c(cc1F)c(=O)c(C(=O)O)cn2Cc1ccccc1Cl
[1]
  viability at 24 h, 20 ug/ml: > 80%
Staphylococcus aureus [2]
  MIC: 4 µg/mL (≈ 10.8 µM)
Staphylococcus aureus [3]
  MIC: 0.25 µg/mL (≈ 0.674 µM)
Calf thymus DNA [4]
  Activity: Active
Enterococcus faecalis [5]
  MIC: 64 µg/mL (≈ 173 µM)
Klebsiella pneumoniae
  MIC: 2 µg/mL (≈ 5.39 µM)
Calf thymus DNA [6]
  Activity: Active
Streptococcus pyogenes [7]
  MIC: 0.25 µg/mL (≈ 0.674 µM)
[8]
  hemolysis at 1.5 h, 32 ug/ml: 4%
Streptococcus pyogenes [9]
  Ratio: 128
Enterococcus faecalis [10]
  MIC: 256 µg/mL (≈ 690 µM)
Pseudomonas aeruginosa [11]
  MIC: 0.5 µg/mL (≈ 1.35 µM)
Staphylococcus aureus [12]
  MIC: 0.25 µg/mL (≈ 0.674 µM)
Erythrocyte
  HC5: 64 µg/mL
[13]
  viability at 24 h, 25 ug/ml: > 90%
Streptococcus pyogenes [14]
  Ratio: 64
Escherichia coli [15]
  MIC: 0.25 µg/mL (≈ 0.674 µM)
Staphylococcus aureus [16]
  MIC: 4 µg/mL (≈ 10.8 µM)
Staphylococcus aureus [17]
  MIC: 128 µg/mL (≈ 345 µM)
Calf thymus DNA [18]
  Activity: Active
Staphylococcus aureus [19]
  MIC: 256 µg/mL (≈ 690 µM)
Pseudomonas aeruginosa [20]
  MIC: 0.25 µg/mL (≈ 0.674 µM)
[21]
  IC50 at 24 h: 1.38 µg/mL (≈ 3.72 µM)
[22]
  IC50 at 24 h: 141 µg/mL (≈ 380 µM)
Staphylococcus aureus [23]
  Activity: inactive
Escherichia coli [24]
  MIC: 0.25 µg/mL (≈ 0.674 µM)
Calf thymus DNA [25]
  Activity: Active
Acinetobacter baumannii
  MIC: 0.5 µg/mL (≈ 1.35 µM)
Streptococcus pneumoniae
  MIC: 16 µg/mL (≈ 43.2 µM)
Enterococcus faecium
  MIC: 4 µg/mL (≈ 10.8 µM)
L02
  Activity: Non-Toxic
Staphylococcus aureus [26]
  MIC: 0.25 µg/mL (≈ 0.674 µM)
HUVEC
  Activity: Non-Toxic
[27]
  MIC: 0.25 µg/mL (≈ 0.674 µM)
Enterococcus faecalis [28]
  MIC: 128 µg/mL (≈ 345 µM)
Staphylococcus aureus [29]
  MIC: 256 µg/mL (≈ 690 µM)
Pseudomonas aeruginosa [30]
  Activity: inactive
Staphylococcus aureus [31]
  MIC: 0.125 µg/mL (≈ 0.337 µM)

## NC1CCN(c2c(F)cc3c(=O)c(C(=O)O)cn(C4CC4)c3c2Cl)C1 (stereo unspecified) [CLINAFLOXACIN]
Klebsiella pneumoniae
  MIC: 0.5 µg/mL (≈ 1.37 µM)
Enterococcus faecalis [10]
  MIC: 4 µg/mL (≈ 10.9 µM)
Pseudomonas aeruginosa [11]
  MIC: 0.5 µg/mL (≈ 1.37 µM)
Staphylococcus aureus [12]
  MIC: 0.5 µg/mL (≈ 1.37 µM)
Escherichia coli [15]
  MIC: 0.25 µg/mL (≈ 0.683 µM)
Pseudomonas aeruginosa [32]
  fold change (FC): 16
Staphylococcus aureus [19]
  MIC: 1 µg/mL (≈ 2.73 µM)
Pseudomonas aeruginosa [20]
  MIC: 0.5 µg/mL (≈ 1.37 µM)
Escherichia coli [24]
  MIC: 0.25 µg/mL (≈ 0.683 µM)
Acinetobacter baumannii
  MIC: 0.5 µg/mL (≈ 1.37 µM)
Staphylococcus aureus [26]
  MIC: 0.5 µg/mL (≈ 1.37 µM)
Staphylococcus aureus [33]
  fold change (FC): 8
Staphylococcus aureus [29]
  MIC: 0.5 µg/mL (≈ 1.37 µM)
